In patent US20240376091A1, “THIADIAZOLEAMIDE DERIVATIVES AND THEIR APPLICATIONS” (ZHEJIANG UNIVERSITY, priority 2021, published 2024):

Each molecule was assayed against T1, AR (Homo sapiens, UniProt P10275, T878A) (assay: AR transcriptional activity, LNCaP-ARR2PB-eGFP reporter cells). Settings: read-out: IC50 AR transcriptional activities.
T1 construct: into the androgen-dependent PCa cells (LNCaP); endogenous in cells; host or cells: LNCaP-ARR2PB-eGFP
T1 sequence (P10275 1-920 T878A): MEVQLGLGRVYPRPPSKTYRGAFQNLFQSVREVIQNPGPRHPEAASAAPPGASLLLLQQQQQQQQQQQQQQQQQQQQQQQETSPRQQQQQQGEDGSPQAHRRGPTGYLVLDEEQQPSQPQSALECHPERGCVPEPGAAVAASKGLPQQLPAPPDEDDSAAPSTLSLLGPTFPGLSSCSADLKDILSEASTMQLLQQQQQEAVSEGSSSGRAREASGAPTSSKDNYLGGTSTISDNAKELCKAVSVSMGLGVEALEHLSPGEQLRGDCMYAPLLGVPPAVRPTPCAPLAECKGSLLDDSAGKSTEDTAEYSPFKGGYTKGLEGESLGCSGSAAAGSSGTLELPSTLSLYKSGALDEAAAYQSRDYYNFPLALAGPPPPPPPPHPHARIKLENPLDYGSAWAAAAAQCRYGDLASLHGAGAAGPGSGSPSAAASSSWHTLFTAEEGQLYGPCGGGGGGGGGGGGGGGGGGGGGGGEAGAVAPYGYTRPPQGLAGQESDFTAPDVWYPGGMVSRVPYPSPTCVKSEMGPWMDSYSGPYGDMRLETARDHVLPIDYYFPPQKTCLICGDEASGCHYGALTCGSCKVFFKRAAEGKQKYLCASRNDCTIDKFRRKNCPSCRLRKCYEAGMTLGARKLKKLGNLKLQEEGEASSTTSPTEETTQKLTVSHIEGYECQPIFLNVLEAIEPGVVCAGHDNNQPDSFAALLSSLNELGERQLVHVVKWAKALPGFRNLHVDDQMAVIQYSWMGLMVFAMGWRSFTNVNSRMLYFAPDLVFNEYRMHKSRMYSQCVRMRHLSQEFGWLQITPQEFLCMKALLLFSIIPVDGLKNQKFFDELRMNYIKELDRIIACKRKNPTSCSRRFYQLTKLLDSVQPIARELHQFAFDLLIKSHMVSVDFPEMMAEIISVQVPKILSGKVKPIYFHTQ
Format: cell-based
From the text: Detection principles: We conducted a stable transfection of promoter ARR2PB known for its strong AR responsiveness, into the androgen-dependent PCa cells (LNCaP). The expression of enhanced green fluorescent protein (eGFP) is depending on the degree of activation of AR. Therefore, LNCaP-ARR2PB-eGFP cell line could quantitatively determine the AR antagonistic activities of the compounds by evaluating the expression of eGFP.

Compound | IC50
Cc1sc(-c2cccc(C(F)(F)F)c2)cc1C(=O)Nc1nc(CC(C)N(C)C)ns1 (centres unmarked) [Compound C-6, N-(3-(2-(dimethylamino)propyl)-1,2,4-thiadiazol-5-yl)-2-methyl-5-(3-(trifluoromethyl)phenyl)thiophene-3-carboxamide] | 33.2 µM
CCN(CC)C(C)Cc1nsc(NC(=O)c2cc(-c3cccc(C(F)(F)F)c3)sc2C)n1 (centres unmarked) [Compound C-7, N-(3-(2-(diethylamino)propyl)-1,2,4-thiadiazol-5-yl)-2-methyl-5-(3-(trifluoromethyl)phenyl)thiophene-3-carboxamide] | 10.6 µM
Cc1sc(-c2cccc(C#N)c2)cc1C(=O)Nc1nc(CC(C)N2CCCCC2)ns1 (centres unmarked) [Compound C-12, 5-(3-Cyanophenyl)-2-methyl-N-(3-(2-(piperidin-1-yl)propyl)-1,2,4-thiadiazol-5-yl)thiophene-3-carboxamide] | 5.77 µM
COc1cccc(-c2cc(C(=O)Nc3nc(CC(C)N4CCCC4)ns3)c(C)s2)c1 (centres unmarked) [Compound C-14, 5-(3-Methoxyphenyl)-2-methyl-N-(3-(2-(pyrrolidin-1-yl)propyl)-1,2,4-thiadiazol-5-yl)thiophene-3-carboxamide] | 19.4 µM
Cc1sc(-c2cccc(OC(F)(F)F)c2)cc1C(=O)Nc1nc(CC(C)N2CCOCC2)ns1 (centres unmarked) [Compound C-17, 2-Methyl-N-(3-(2-morpholinopropyl)-1,2,4-thiadiazol-5-yl)-5-(3-(trifluoromethoxy)phenyl)thiophene-3-carboxamide] | 6.17 µM
Cc1sc(-c2cccc(OC(F)F)c2)cc1C(=O)Nc1nc(CC(C)N2CCN(C)CC2)ns1 (centres unmarked) [Compound C-19, 5-(3-(Difluoromethoxy)phenyl)-2-methyl-N-(3-(2-(4-methylpiperazin-1-yl)propyl)-1,2,4-thiadiazol-5-yl)thiophene-3-carboxamide] | 15.4 µM
Cc1sc(-c2cccc(C(F)(F)F)c2)cc1C(=O)Nc1nc(CC(C)O)ns1 (centres unmarked) [Compound C-20, N-(3-(2-hydroxypropyl)-1,2,4-thiadiazol-5-yl)-2-methyl-5-(3-(trifluoromethyl)phenyl)thiophene-3-carboxamide] | 4.52 µM
Cc1sc(-c2cccc(C(F)(F)F)c2)cc1C(=O)Nc1nc(CC(C)(O)C(F)(F)F)ns1 (centres unmarked) [Compound C-25, 2-Methyl-N-(3-(3,3,3-trifluoro-2-hydroxy-2-methylpropyl)-1,2,4-thiadiazol-5-yl)-5-(3-(trifluoromethyl)phenyl)thiophene-3-carboxamide] | 2.51 µM
CC(Cc1nsc(NC(=O)c2cc(-c3cccc(C(F)(F)F)c3)sc2C)n1)=C(F)F [Compound C-30, N-(3-(3,3-difluoro-2-methylallyl)-1,2,4-thiadiazol-5-yl)-2-methyl-5-(3-(trifluoromethyl)phenyl)thiophene-3-carboxamide] | 12.7 µM
Cc1sc(-c2cccc(C(F)(F)F)c2)cc1C(=O)Nc1nc(CC(C)(F)F)ns1 [Compound C-35, N-(3-(2,2-difluoropropyl)-1,2,4-thiadiazol-5-yl)-2-methyl-5-(3-(trifluoromethyl)phenyl)thiophene-3-carboxamide] | 29.1 µM
Cc1sc(-c2cccc(C(F)(F)F)c2)cc1C(=O)Nc1nc(CCl)ns1 [Compound C-40, N-(3-(chloromethyl)-1,2,4-thiadiazol-5-yl)-2-methyl-5-(3-(trifluoromethyl)phenyl)thiophene-3-carboxamide] | 12.3 µM
CCN(CC)Cc1nsc(NC(=O)c2cc(-c3cccc(OC)c3)sc2C)n1 [Compound C-50, N-(3-((diethylamino)methyl)-1,2,4-thiadiazol-5-yl)-5-(3-methoxyphenyl)-2-methyl-thiophene-3-carboxamide] | 12.5 µM
Cc1sc(-c2cccc(OC(F)(F)F)c2)cc1C(=O)Nc1nc(CN2CCCC2)ns1 [Compound C-53, 2-Methyl-N-(3-(pyrrolidin-1-ylmethyl)-1,2,4-thiadiazol-5-yl)-5-(3-(trifluoromethoxy)phenyl)thiophene-3-carboxamide] | 14.8 µM
Cc1sc(-c2cccc(OC(F)F)c2)cc1C(=O)Nc1nc(CN2CCCCC2)ns1 [Compound C-56, 5-(3-(Difluoromethoxy)phenyl)-2-methyl-N-(3-(piperidin-1-ylmethyl)-1,2,4-thiadiazol-5-yl)thiophene-3-carboxamide] | 12.9 µM
Cc1sc(-c2cccc(OC(F)F)c2)cc1C(=O)Nc1nc(CN2CCOCC2)ns1 [Compound C-57, 5-(3-(Difluoromethoxy)phenyl)-2-methyl-N-(3-(morpholinomethyl)-1,2,4-thiadiazol-5-yl)thiophene-3-carboxamide] | 13.3 µM
Cc1sc(-c2cccc(OC(F)F)c2)cc1C(=O)Nc1nc(CN2CCN(C)CC2)ns1 [Compound C-58, 5-(3-(Difluoromethoxy)phenyl)-2-methyl-N-(3-((4-methylpiperazin-1-yl)methyl)-1,2,4-thiadiazol-5-yl)thiophene-3-carboxamide] | 9.79 µM
CC(Cc1nsc(NC(=O)c2csc(-c3cccc(C(F)(F)F)c3)c2)n1)N(C)C [Compound D-6, N-(3-(2-(dimethylamino)propyl)-1,2,4-thiadiazol-5-yl)-5-(3-(trifluoromethyl)phenyl)thiophene-3-carboxamide] | 43.8 µM
CCN(CC)C(C)Cc1nsc(NC(=O)c2csc(-c3cccc(C(F)(F)F)c3)c2)n1 [Compound D-7, N-(3-(2-(diethylamino)propyl)-1,2,4-thiadiazol-5-yl)-5-(3-(trifluoromethyl)phenyl)thiophene-3-carboxamide] | 23.2 µM

Next, values leading:

IC50 | Compound
25 µM | CC(=O)Cc1nsc(NC(=O)c2csc(-c3cccc(C(F)(F)F)c3)c2)n1 [Compound D-1, N-(3-(2-oxopropyl)-1,2,4-thiadiazol-5-yl)-5-(3-(trifluoromethyl)phenyl)thiophene-3-carboxamide]
32.6 µM | CC(=O)Cc1nsc(NC(=O)c2csc(-c3cccc(C#N)c3)c2)n1 [Compound D-2, 5-(3-Cyanophenyl)-N-(3-(2-oxopropyl)-1,2,4-thiadiazol-5-yl)thiophene-3-carboxamide]
13.6 µM | COc1cccc(-c2cc(C(=O)Nc3nc(CC(C)=O)ns3)cs2)c1 [Compound D-3, 5-(3-Methoxyphenyl)-N-(3-(2-oxopropyl)-1,2,4-thiadiazol-5-yl)thiophene-3-carboxamide]
41.5 µM | CC(=O)Cc1nsc(NC(=O)c2csc(-c3cccc(OC(F)(F)F)c3)c2)n1 [Compound D-4, N-(3-(2-oxopropyl)-1,2,4-thiadiazol-5-yl)-5-(3-(trifluoromethoxy)phenyl)thiophene-3-carboxamide]
40 µM | CC(=O)Cc1nsc(NC(=O)c2csc(-c3cccc(OC(F)F)c3)c2)n1 [Compound D-5, 5-(3-(Difluoromethoxy)phenyl)-N-(3-(2-oxopropyl)-1,2,4-thiadiazol-5-yl)thiophene-3-carboxamide]
13 µM | CC(Cc1nsc(NC(=O)c2csc(-c3cccc(C#N)c3)c2)n1)N1CCCC1 [Compound D-12, 5-(3-Cyanophenyl)-N-(3-(2-(pyrrolidin-1-yl)propyl)-1,2,4-thiadiazol-5-yl)thiophene-3-carboxamide]
37.2 µM | COc1cccc(-c2cc(C(=O)Nc3nc(CC(C)N4CCCCC4)ns3)cs2)c1 [Compound D-14, 5-(3-Methoxyphenyl)-N-(3-(2-(piperidin-1-yl)propyl)-1,2,4-thiadiazol-5-yl)thiophene-3-carboxamide]
24.2 µM | CC(Cc1nsc(NC(=O)c2csc(-c3cccc(OC(F)(F)F)c3)c2)n1)N1CCOCC1 [Compound D-16, N-(3-(2-morpholinopropyl)-1,2,4-thiadiazol-5-yl)-5-(3-(trifluoromethoxy)phenyl)thiophene-3-carboxamide]
19.2 µM | CC(Cc1nsc(NC(=O)c2csc(-c3cccc(OC(F)F)c3)c2)n1)N1CCN(C)CC1 [Compound D-19, 5-(3-(Difluoromethoxy)phenyl)-N-(3-(2-(4-methylpiperazin-1-yl)propyl)-1,2,4-thiadiazol-5-yl)thiophene-3-carboxamide]
18.1 µM | CC(O)Cc1nsc(NC(=O)c2csc(-c3cccc(C(F)(F)F)c3)c2)n1 [Compound D-20, N-(3-(2-hydroxypropyl)-1,2,4-thiadiazol-5-yl)-5-(3-(trifluoromethyl)phenyl)thiophene-3-carboxamide]
33 µM | CC(O)(Cc1nsc(NC(=O)c2csc(-c3cccc(C(F)(F)F)c3)c2)n1)C(F)(F)F [Compound D-25, N-(3-(3,3,3-trifluoro-2-hydroxy-2-methylpropyl)-1,2,4-thiadiazol-5-yl)-5-(3-(trifluoro-methyl)phenyl)thiophene-3-carboxamide]
